Experiments:
ALOX12-AS1-202 = test: Multiplex RT-PCR of ALOX12-AS1-202 in TPA-treated THP-1 derived MLCs; assay type: cell-based, human; conditions: TPA treated (72 hours) MLCs vs vehicle treated THP-1 cells
Description: Phorbol ester (12-O-Tetradecanoylphorbol 13-acetate: TPA) is an activator of protein kinase C (PKC) that has been frequently used for inducing the differentiation of different cell types, including myeloid cells. Activation of human monocytic cells affects ALOX expression. Therefore, we induced differentiation of monocytic THP-1 cells to macrophage-like cells (MLCs) with 100 nM TPA [91, 92] and monitored the ALOX12 protein level as well as nucleo-cytoplasmic translocation of ALOX12-AS1-201. […] We concurrently monitored expression of the integrin subunit a M (ITGAM), also known as CD11b, which regulates myeloid cell polarization and is expressed in macrophages to facilitate adhesion, migration, chemotaxis, and accumulation during inflammation. […]
Total RNA from different cell lines was extracted with Trizol reagent (Catalog number: 15596026; ThermoFisher Scientific, Canada) as per the manufacturer's recommended protocol. […] Absolute quantification of ALOX12-AS1 lncRNA isoforms was performed in a Mastercycler®ep realplex real-time PCR system (Eppendorf, Hamburg, Germany) using SYBR green dye (Catalog number: S7563; ThermoFisher Scientific). […] Real-time PCR data quality control calculations were determined by the SAS program as described previously and the calculated PCR efficiency was between 95%-99%. […] Results were expressed as copy number of specific isoforms per 100 ng of total RNA.

[1] = system: ALOX12 protein level in HEK293 cells; test: ALOX12 protein level in HEK293 cells (immunoblot); assay type: cell-based, human; conditions: HEK293 cells, 10 μM TPA, 1 hour, vs vehicle
Description: As an alternative approach, multiple isoform-specific oligonucleotides (ASOs) complementary to different regions of ALOX12-AS1-201/202 were designed (FIG. 7A-C).
Relative quantification of proteins was performed as described previously [35, 106]. The cell lysates were prepared in 1×RIPA lysis and extraction buffer (catalogue number: 89900, ThermoFisher Scientific) supplemented with 1× Halt protease and phosphatase inhibitor cocktail (catalogue number: 78441, ThermoFisher Scientific). The protein lysates were denatured in Laemmli buffer containing 2% SDS, 10% glycerol, 0.002% bromophenol blue, 0.75 M Tris-HCl pH 6.8, and 100 mM DTT. The immunoblots were imaged using a ChemiDoc XRS+ system (Bio-Rad) and band intensities were quantified using ImageJ (version 1.48) Software [107]. Due to the possibility of inconsistency in the relative expression of housekeeping genes, we normalized all proteins of interest based on the intensity of the Oriole-stained protein profile [92].

CCCCCCCCCCCCCC(=O)O[C@@H]1[C@@H](C)[C@@]2(O)[C@@H](C=C(CO)C[C@]3(O)C(=O)C(C)=C[C@@H]23)[C@@H]2C(C)(C)[C@]12OC(C)=O [TPA, 12-O-Tetradecanoylphorbol 13-acetate]
ALOX12-AS1-202 level (ALOX12-AS1-202): dramatic reduction
ALOX12 protein level [1]: significant reduction

Source: patent US20230407296A1, “Method to Regulate ALOX12-AS1 IncRNA-Mediated Alteration of ALOX12 Protein and to Screen for Novel Drugs to Alter ALOX12 Protein Level” (priority 2021, published 2023)
